Laboratory results reported in US20250179059A1 (The Regents of the University of California, priority 2021, published 2025).
Where two headings read alike, the source gives them in different places. Values belong to the molecule of their own block, whether it stands above or below them.

Legend:
[1] = system: human SKM-1 acute myeloid leukemia cells; experiment: SKM-1 antiproliferation cell-based assay (ATPlite); settings: Homo sapiens
How it was run: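 Log-phase cells in RPMI 1640/15% FBS were seeded at 34722 cells/mL and exposed for 4 days to nine-concentration DMSO serial dilutions in triplicate. Viability was read as ATP luminescence (ATPlite 1step), and IC50 values came from variable-slope non-linear regression.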

[2] = target: T1, human BRD4 bromodomain II (Homo sapiens, UniProt O60885); experiment: Bromodomain binding assay (AlphaScreen), BRD4 BDII
T1 construct: human BRD4 bromodomain II [based on Genbank NM_058243, residues 349-460]; host or cells: E. coli
How it was run: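 E. coli-expressed N-terminal His6-tagged human BRD4 BDII (residues 349-460) or BDI (residues 44-170) was preincubated 30 min at room temperature with compound (10-point, 3-fold) in pH 7.5 HEPES buffer, 1% DMSO. Displacement of biotinylated tetra-acetylated H4 1-21 peptide was read by AlphaScreen, and IC50 came from curve fitting.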

[3] = SKM-1, 96 h, SKM-1 antiproliferation assay, 4 days, Table C2
[4] = AlphaScreen assay, Table C2, read-out: BRD4 BDII IC50
[5] = SKM-1, SKM-1 antiproliferation assay
[6] = BRD4 BDII AlphaScreen assay, read-out: BRD4 BD2 IC50

Compound: CN1CCCN(c2ccc(-c3cccc(-c4ccnc(N5CCNCC5)c4)c3O)cc2F)C1=O [Example 288, 1-(3-fluoro-2′-hydroxy-3′-(2-(piperazin-1-yl)pyridin-4-yl)-[1,1′-biphenyl]-4-yl)-3-methyltetrahydropyrimidin-2(1H)-one]
GI50 [1, 3]: ≥ 3000 nM
IC50 [2, 4]: > 100 nM

Compound: O=C1OCCN1c1ccc(-c2cc(F)cc(-c3ccnc(N4CCNCC4)c3)c2O)cc1Cl [Example 371, 3-(3-chloro-5′-fluoro-2′-hydroxy-3′-(2-(piperazin-1-yl)pyridin-4-yl)-[1,1′-biphenyl]-4-yl)oxazolidin-2-one]
GI50 [1, 3]: 300 to 3000 nM
IC50 [2, 4]: 10 to 100 nM

Compound: Cn1ccn(-c2c(F)cc(-c3cc(F)cc(-c4ccnc(N5CCNCC5)c4)c3O)cc2Cl)c1=O [Example 436, 1-(3-chloro-5,5′-difluoro-2′-hydroxy-3′-(2-(piperazin-1-yl)pyridin-4-yl)-[1,1′-biphenyl]-4-yl)-^3-methyl-1H-imidazol-2(3H)-one]
GI50 [1, 3]: 30 to 300 nM
IC50 [2, 4]: 1 to 10 nM

Compound: COc1ncc(-c2nc(C)cc(-c3ccc(-n4ccn(C)c4=O)c(Cl)c3)c2O)cc1N1CC2CCC(C1)N2C(C)C [Example 1039, 1-(2-chloro-4-(3-hydroxy-5′-(8-isopropyl-3,8-diazabicyclo[3.2.1]octan-3-yl)-6′-methoxy-6-methyl-[2,3′-bipyridin]-4-yl)phenyl)-3-methyl-1H-imidazol-2(3H)-one]
GI50 [1, 5]: 0.3 to 30 nM
IC50 [2, 6]: 1 to 10 nM

Compound: C[C@@H]1CN(c2cc(-c3cc(F)cc(-c4ccc(-n5ccn(C)c5=O)c(Cl)c4)c3O)ccn2)C[C@H](C)N1 [Example 555, 1-(3-chloro-3′-(2-((3R,5S)-3,5-dimethylpiperazin-1-yl)pyridin-4-yl)-5′-fluoro-2′-hydroxy-[1,1′-biphenyl]-4-yl)-3-methyl-1H-imidazol-2(3H)-one]
GI50 [1, 3]: 0.3 to 30 nM
IC50 [2, 4]: 1 to 10 nM

Compound: CN1CCN(c2ccc(-c3cc(F)cc(-c4cnc(-c5cn[nH]c5)c(N5CCNCC5)c4)c3O)cc2Cl)C1=O [Example 390, 1-(3-chloro-5′-fluoro-2′-hydroxy-3′-(5-(piperazin-1-yl)-6-(1H-pyrazol-4-yl)pyridin-3-yl)-[1,1′-biphenyl]-4-yl)-3-methylimidazolidin-2-one]
GI50 [1, 3]: 300 to 3000 nM
IC50 [2, 4]: 1 to 10 nM

Compound: CNC1CCN(c2cncc(-c3cc(F)cc(-c4ccc(-n5ccn(C)c5=O)c(Cl)c4)c3O)c2)CC1 [Example 516, 1-(3-chloro-5′-fluoro-2′-hydroxy-3′-(5-(4-(methylamino)piperidin-1-yl)pyridin-3-yl)-[1,1′-biphenyl]-4-yl)-3-methyl-1H-imidazol-2(3H)-one]
GI50 [1, 3]: 0.3 to 30 nM
IC50 [2, 4]: 1 to 10 nM

Compound: CC(=O)Nc1cc(-c2cc(F)cc(-c3ccc(-n4ccn(C)c4=O)c(Cl)c3)c2O)cc(N2CCNCC2)n1 [Example 442, N-(4-(3′-chloro-5-fluoro-2-hydroxy-4′-(3-methyl-2-oxo-2,3-dihydro-1H-imidazol-1-yl)-[1,1′-biphenyl]-3-yl)-6-(piperazin-1-yl)pyridin-2-yl)acetamide]
GI50 [1, 3]: 0.3 to 30 nM
IC50 [2, 4]: 0.01 to 1 nM

Compound: CC(=O)Nc1ccc(-c2cc(F)cc(-c3ccnc(N4CCNCC4)c3)c2O)cc1Cl [Example 222, N-(3-chloro-5′-fluoro-2′-hydroxy-3′-(2-(piperazin-1-yl)pyridin-4-yl)-[1,1′-biphenyl]-4-yl)acetamide]
GI50 [1, 3]: 300 to 3000 nM
IC50 [2, 4]: 1 to 10 nM

Compound: Cn1ccn(-c2ccc(-c3cc(F)cc(-c4cncc(N5CCNC6(CC6)C5)c4)c3O)cc2Cl)c1=O [Example 550, 1-(3′-(5-(4,7-diazaspiro[2.5]octan-7-yl)pyridin-3-yl)-3-chloro-5′-fluoro-2′-hydroxy-[1,1′-biphenyl]-4-yl)-3-methyl-1H-imidazol-2(3H)-one]
GI50 [1, 3]: 0.3 to 30 nM
IC50 [2, 4]: 0.01 to 1 nM

The next lines start with the values.

GI50 [1, 3]: 0.3 to 30 nM
IC50 [2, 4]: 0.01 to 1 nM
Compound: Cn1ccn(-c2ccc(-c3cc(F)cc(-c4cncc(N5CCN(C(C)(C)C)CC5)c4)c3O)cc2Cl)c1=O [Example 664, 1-(3′-(5-(4-(tert-butyl)piperazin-1-yl)pyridin-3-yl)-3-chloro-5′-fluoro-2′-hydroxy-[1,1′-biphenyl]-4-yl)-3-methyl-1H-imidazol-2(3H)-one]

GI50 [1, 3]: 30 to 300 nM
IC50 [2, 4]: 10 to 100 nM
Compound: Cc1ccc(S(=O)(=O)n2ccc3c(N4CCN[C@H](C)C4)cc(-c4cc(F)cc(-c5ccc(-n6ccn(C)c6=O)c(Cl)c5)c4O)cc32)cc1 [Example 608, (R)-1-(3-chloro-5′-fluoro-2′-hydroxy-3′-(4-(3-methylpiperazin-1-yl)-1-tosyl-1H-indol-6-yl)-[1,1′-biphenyl]-4-yl)-3-methyl-1H-imidazol-2(3H)-one]

GI50 [1, 5]: 300 to 3000 nM
IC50 [2, 6]: > 100 nM
Compound: Cn1ccn(-c2ccc(-c3cc(F)cc(-c4cc(N5CCN(C(C)(C)C)CC5)ncn4)c3O)cc2Cl)c1=O [Example 942, 1-(3′-(6-(4-(tert-butyl)piperazin-1-yl)pyrimidin-4-yl)-3-chloro-5′-fluoro-2′-hydroxy-[1,1′-biphenyl]-4-yl)-3-methyl-1H-imidazol-2(3H)-one]

GI50 [1, 5]: 0.3 to 30 nM
IC50 [2, 6]: 0.01 to 1 nM
Compound: Cc1ncc(-c2cc(F)cc(-c3ccc(-n4ccn(C)c4=O)c(Cl)c3)c2O)cc1N1CC2(CC2)[C@](C)(O)C1 [Example 873]

GI50 [1, 3]: 0.3 to 30 nM
IC50 [2, 4]: 0.01 to 1 nM
Compound: Cn1ccn(-c2ccc(-c3cc(F)cc(-c4ccnc(N5CCNC(CCO)C5)c4)c3O)cc2Cl)c1=O (stereo not shown) [Example 640, 1-(3-chloro-5′-fluoro-2′-hydroxy-3′-(2-(3-(2-hydroxyethyl)piperazin-1-yl)pyridin-4-yl)-[1,1′-biphenyl]-4-yl)-3-methyl-1H-imidazol-2(3H)-one]

GI50 [1, 3]: 0.3 to 30 nM
IC50 [2, 4]: 1 to 10 nM
Compound: CC(C)N1CCN(c2cc(-c3cc(F)cc(-c4ccc(-n5ccn(C)c5=O)c(Cl)c4)c3O)cnc2OC(F)F)CC1 [Example 824, 1-(3-chloro-3′-(6-(difluoromethoxy)-5-(4-isopropylpiperazin-1-yl)pyridin-3-yl)-5′-fluoro-2′-hydroxy-[1,1′-biphenyl]-4-yl)-3-methyl-1H-imidazol-2(3H)-one]

GI50 [1, 5]: 0.3 to 30 nM
IC50 [2, 6]: 10 to 100 nM
Compound: Cc1ncc(-c2nccc(-c3ccc(-n4ccn(C)c4=O)c(Cl)c3)c2O)cc1N1CCN(C(C)(C)C)CC1 [Example 993, 1-(4-(5′-(4-(tert-Butyl)piperazin-1-yl)-3-hydroxy-6′-methyl-[2,3′-bipyridin]-4-yl)-2-chlorophenyl)-3-methyl-1H-imidazol-2(3H)-one]

GI50 [1, 5]: 300 to 3000 nM
IC50 [2, 6]: 10 to 100 nM
Compound: Cn1ccn(-c2ccc(-c3cc(F)cc(-c4cccc(-c5ccc(O)cc5)c4)c3O)cc2Cl)c1=O [Example 857]

GI50 [1, 3]: 0.3 to 30 nM
IC50 [2, 4]: 0.01 to 1 nM
Compound: Cn1ccn(-c2ccc(-c3cc(F)cc(-c4ccnc(N5CCC6(CCN6)C5)c4)c3O)cc2Cl)c1=O (stereo not shown) [Example 641, 1-(3′-(2-(1,6-diazaspiro[3.4]octan-6-yl)pyridin-4-yl)-3-chloro-5′-fluoro-2′-hydroxy-[1,1′-biphenyl]-4-yl)-3-methyl-1H-imidazol-2(3H)-one]

GI50 [1, 3]: 0.3 to 30 nM
IC50 [2, 4]: 0.01 to 1 nM
Compound: CC(C)N1CCN(c2cncc(-c3cc(F)cc(-c4ccc(-n5ccn(C)c5=O)c(Cl)c4)c3O)c2)CC1 [Example 663, 1-(3-chloro-5′-fluoro-2′-hydroxy-3′-(5-(4-isopropylpiperazin-1-yl)pyridin-3-yl)-[1,1′-biphenyl]-4-yl)-3-methyl-1H-imidazol-2(3H)-one]
